From patent US20230157952A1, “METHOD FOR IMPROVING THE STABILITY OF A PHARMACEUTICAL COMPOSITION COMPRISING A HIGH PENETRATION DRUG, AND THE PHARMACEUTICAL COMPOSITION OBTAINED THEREFROM” (Techfields Inc., priority 2020, published 2023)

Key:
[1] = Stability of the pure HPDs (dry solid) at 25° C./RH 60%; format: physicochemical; details: pure HPD, 25° C./RH 60%
[2] = Effect of pH value on the stability of the solution (purity); format: physicochemical; details: 25° C.
[3] = day 28, pH 1.0, 7% in 25% ethanol
[4] = day 28, pH 2.0, 7% in 25% ethanol
[5] = day 28, pH 3.0, 7% in 25% ethanol
[6] = day 28, pH 3.7, 7% in 25% ethanol
[7] = day 28, pH 4.0, 7% in 25% ethanol
[8] = day 28, pH 4.3, 7% in 25% ethanol
[9] = day 28, pH 4.6, 7% in 25% ethanol
[10] = day 28, pH 5.0, 7% in 25% ethanol
[11] = day 28, pH 6.0, 7% in 25% ethanol
[12] = day 28, pH 7.0, 7% in 25% ethanol
[13] = day 28, pH 8.0, 7% in 25% ethanol

Compound	Purity ([1]; 24 month)	Purity(%) from day 0-28 [2, 3] [%]	Purity(%) from day 0-28 [2, 4] [%]	Purity(%) from day 0-28 [2, 5] [%]	Purity(%) from day 0-28 [2, 6] [%]	Purity(%) from day 0-28 [2, 7] [%]	Purity(%) from day 0-28 [2, 8] [%]	Purity(%) from day 0-28 [2, 9] [%]	Purity(%) from day 0-28 [2, 10] [%]	Purity(%) from day 0-28 [2, 11] [%]	Purity(%) from day 0-28 [2, 12] [%]	Purity(%) from day 0-28 [2, 13] [%]	Purity ([1]; 12 month)	Purity ([1]; 18 month)	Purity(%) from day 0-14 ([2]; day 14, pH 1.0, 7% in water) [%]	Purity(%) from day 0-14 ([2]; day 14, pH 2.0, 7% in water) [%]	Purity(%) from day 0-14 ([2]; day 14, pH 3.0, 7% in water) [%]	Purity(%) from day 0-14 ([2]; day 14, pH 3.7, 7% in water) [%]	Purity(%) from day 0-14 ([2]; day 14, pH 4.0, 7% in water) [%]	Purity(%) from day 0-14 ([2]; day 14, pH 4.3, 7% in water) [%]	other results
CCCCN(CCCC)CCOC(=O)C(C)c1ccc(CC(C)C)cc1.Cl (racemic) [C-6, 2-(dibutylamino)ethyl (R,S)-2-(p-isobutylphenyl)propionate•HCl salt]	98.1 ± 0.2	68.4 ± 0.3	79.2 ± 0.4	91.2 ± 0.3	96.9 ± 0.2	97.3 ± 0.2	97.3 ± 0.3	97.1 ± 0.3	94.5 ± 0.3	89.2 ± 0.4	51.5 ± 0.3	35.1 ± 0.3									
CCN(CC)CCOC(=O)c1ccccc1OC(C)=O.O=C(O)c1ccccc1 [A-2, 2-(diethylamino)ethyl acetylsalicylate•benzoic acid salt]	97.1 ± 0.2												97.9 ± 0.1	97.6 ± 0.2	60.5 ± 0.3	79.7 ± 0.4	91.0 ± 0.2	94.1 ± 0.2	95.0 ± 0.3	95.0 ± 0.4	Purity(%) from day 0-14 ([2]; day 14, pH 4.6, 7% in water): 94.4 ± 0.3%; Purity(%) from day 0-14 ([2]; day 14, pH 5.0, 7% in water): 87.3 ± 0.2%; Purity(%) from day 0-14 ([2]; day 14, pH 6.0, 7% in water): 78.3 ± 0.3%; Purity(%) from day 0-14 ([2]; day 14, pH 7.0, 7% in water): 56.0 ± 0.4%; Purity(%) from day 0-14 ([2]; day 14, pH 8.0, 7% in water): 17.7 ± 0.4%
CCCCC(=O)O.CCN(CC)CCOC(=O)c1ccccc1OC(C)=O [A-4, 2-(diethylamino)ethyl acetylsalicylate•valeric acid]	97.2 ± 0.1												98.0 ± 0.2	97.9 ± 0.2	58.1 ± 0.3	77.3 ± 0.2	87.5 ± 0.3	93.2 ± 0.3	94.2 ± 0.4	94.7 ± 0.2	Purity ([1]; 6 month): 98.6 ± 0.1; Purity ([1]; Day 0): 98.6 ± 0.2; Purity(%) from day 0-14 ([2]; day 14, pH 4.6, 7% in water): 94.0 ± 0.2%; Purity(%) from day 0-14 ([2]; day 14, pH 5.0, 7% in water): 85.5 ± 0.4%; Purity(%) from day 0-14 ([2]; day 14, pH 6.0, 7% in water): 77.3 ± 0.3%; Purity(%) from day 0-14 ([2]; day 14, pH 7.0, 7% in water): 52.5 ± 0.4%; Purity(%) from day 0-14 ([2]; day 14, pH 8.0, 7% in water): 15.2 ± 0.4%
CC(C)Cc1ccc([C@@H](C)C(=O)OC[C@@H]2CCCN2)cc1.Cl [C-7, 2-pyrrolidinemethyl (R,S)-2-(p-isobutylphenyl)propionate•HCl salt]	97.9 ± 0.1	66.8 ± 0.3	86.0 ± 0.4	86.0 ± 0.3	94.3 ± 0.3	95.8 ± 0.3	96.5 ± 0.4	96.2 ± 0.3	89.3 ± 0.2	86.2 ± 0.3	48.0 ± 0.3	34.3 ± 0.4		98.0 ± 0.3							Purity ([1]; 9 month): 98.1 ± 0.1
CC(C)Cc1ccc([C@@H](C)C(=O)OCCN(C)C)cc1.Cl (racemic) [C-5, 2-(dimethylamino)ethyl (R,S)-2-(p-isobutylphenyl)propionate•HCl salt]	97.7 ± 0.4	65.3 ± 0.3	77.4 ± 0.3	88.4 ± 0.2	95.7 ± 0.3	96.6 ± 0.4	96.8 ± 0.3	96.8 ± 0.2	93.1 ± 0.4	85.3 ± 0.2	47.1 ± 0.3	34.9 ± 0.5	98.0 ± 0.4	97.9 ± 0.1							Purity ([1]; 3 month): 98.1 ± 0.2; Purity ([1]; 6 month): 98.1 ± 0.3
